Measured values taken from patent US20170067909A1, “ASSAY-READY RECOMBINANT CELLS TRANSIENTLY OVEREXPRESSING GENES ENCODING DRUG TRANSPORTER PROTEINS AND/OR DRUG METABOLIZING ENZYMES” (Corning Incorporated, priority 2012, published 2017).
Substitutions are numbered along the chain they refer to.

Tests used:
[1] = target: T1, Organic Anion-Transporting Polypeptide 1B1 (Homo sapiens, UniProt Q9Y6L6); test: Suspension assay, vacuum manifold, Corning TransportoCells OATP1B1*1a; type: in vitro ADME; settings: 5× substrate solution containing 25 μM, 10 minutes at 37° C., 600 k cells/well
T1 construct: host or cells: HEK293 cells, gene delivered by electroporation
T1 sequence (Q9Y6L6 1-691): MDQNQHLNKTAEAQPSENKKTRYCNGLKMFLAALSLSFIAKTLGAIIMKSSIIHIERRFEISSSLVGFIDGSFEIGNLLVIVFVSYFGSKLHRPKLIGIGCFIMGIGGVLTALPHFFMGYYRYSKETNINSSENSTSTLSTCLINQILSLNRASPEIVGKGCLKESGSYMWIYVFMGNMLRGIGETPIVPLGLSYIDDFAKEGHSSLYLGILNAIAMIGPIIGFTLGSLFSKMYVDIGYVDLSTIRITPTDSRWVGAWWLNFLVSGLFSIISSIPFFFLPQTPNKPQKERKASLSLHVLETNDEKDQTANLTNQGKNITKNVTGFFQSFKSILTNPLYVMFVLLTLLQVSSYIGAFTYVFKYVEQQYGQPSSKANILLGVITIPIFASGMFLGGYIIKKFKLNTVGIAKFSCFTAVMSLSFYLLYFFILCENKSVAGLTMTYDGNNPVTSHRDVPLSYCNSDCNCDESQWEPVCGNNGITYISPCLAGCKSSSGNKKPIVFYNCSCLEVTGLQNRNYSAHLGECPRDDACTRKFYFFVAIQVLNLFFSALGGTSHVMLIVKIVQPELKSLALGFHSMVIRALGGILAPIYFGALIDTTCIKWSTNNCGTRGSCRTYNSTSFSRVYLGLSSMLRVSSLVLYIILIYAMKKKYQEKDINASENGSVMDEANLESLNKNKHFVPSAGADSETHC
Source text: In this experiment, a suspension assay for characterizing the activity of a drug transporter protein in cryopreserved, Corning® TransportoCells™ was developed. More specifically, the use of a centrifugation method versus a vacuum manifold for separating unreacted substrate in characterizing the activity of Organic Anion-Transporting Polypeptide 1B1 was investigated. Corning® TransportoCells™ transiently transfected with the gene OATP1B1*1a were obtained from Corning Life Sciences (Cat. No. 354859). In the Corning® TransportoCells™, the gene OATP1B1*1a was delivered into HEK293 cells via electroporation and the HEK293 cells were recovered and cryopreserved 1 hour post-electroporation. In order to obtain suitable expression of the Organic Anion-Transporting Polypeptide 1B1 encoded by OATP1B1*1a, the Corning® TransportoCells™ were thawed, cultured, and harvested.
The cells were cultured in T-175 Vented-Cap Culture Flasks with Poly-D-Lysine (hereinafter, “PDL”; available from Corning Life Sciences, Cat. No. 354539) with plating medium for 48 hours at 37° C. and 8% CO2. The plating medium is detailed in Table 16. After 24 hours, sodium butyrate (obtained from Sigma) was added to the cells to reach final 5 mM. After 48 hours, the cells were rinsed twice with Phosphate-Buffered Saline (hereinafter, “PBS”, obtained from Corning).
The cells were then harvested with 0.05% Trypsin (obtained from Sigma) and washed once with Hank's Balanced Salt Solution (hereinafter, “HBSS”) buffer (with Ca^2+ and Mg^2+, obtained from Corning). Then, the cells were resuspended in HBSS (obtained from Corning) to a final cell density of 3×10^6 cells/ml. […]
Then, the cells were transferred to FiltrEX™ 96 Well Filter Plates with 0.66 mm Thick Glass Fiber Filter (available from Corning Life Sciences, Cat. No. 3511) and a vacuum was applied. […] The cell lysis was then subjected to the appropriate protein analysis and/or fluorescence analysis to characterize the activity of Organic Anion-Transporting Polypeptide 1B1.

OATP1B1*15 = target: T2, OATP1B1*15 (Homo sapiens, UniProt Q9Y6L6, N130D/V174A); test: OATP1B1 single nucleotide polymorphism panel uptake assay, OATP1B1*15 HEK-293 cells
T2 sequence (Q9Y6L6 1-691 N130D/V174A): T1 sequence (Q9Y6L6 1-691) with N130D, V174A

With `C[C@]12CC[C@@H]3c4ccc(O)cc4CC[C@H]3[C@@H]1CC[C@@H]2O[C@@H]1O[C@H](C(=O)O)[C@@H](O)[C@H](O)[C@H]1O` [E17βG] the “Uptake Activity OATP1B1” value [1] was 2.19 pmol/mg/min and the “uptake activity / transport compared to OATP1B1*1a cells (in words)” value (OATP1B1*15) was “Significantly impaired transport”.

For fluorescein methotrexate [FMTX], the “Uptake Activity OATP1B1” value [1] was 0.46 pmol/mg/min, the “Uptake Ratio” value [1] was 6.8 and the “uptake activity / transport compared to OATP1B1*1a cells (in words)” value (OATP1B1*15) was “Significantly impaired transport”.
